Experiments:
pentosidine = assay: Quantitative determination of pentosidine (FSK Pentosidine kit) after reaction at 120° C. for 60 minutes; type: biochemical; details: Test Example 1; for Pentosidine: lysine + arginine 0.2 g each, carbohydrate 3.40 g each, 120° C., 60 minutes
Experimental: Amino acids, carbohydrates and a phosphate buffer solution were charged in a 30 mL glass test tube in each amount shown in Table 1, followed by sealing and stirring. […] The filtrate thus obtained was used as a sample. The amino acids and carbohydrates used are as follows. Using a pentosidine measurement kit “FSK Pentosidine (registered trademark)” (manufactured by Fushimi Pharmaceutical Co., Ltd.), quantitative determination of pentosidine was performed. Thirty (30) or more minutes before use, reagents and pentosidine solid-phase plates were put to room temperature. After dilution of the sample, a 50 μL aliquot of the sample was dispensed to a pentosidine solid plate attached to the kit, and 50 μL of a first antibody solution was dispensed into wells other than the wells for measurement of reagent blank value. After the sample and the antibody solution were mixed by shaking the plate at 300 rpm for 1 minute, the solution was reacted at 37° C. for 1 hour. Next, the reaction solution was discarded, and 200 μL of rinsing fluid was dispensed to wash the plate. The washing was performed for 3 times. After liquid on the plate was removed, 100 μL of a second antibody solution was dispensed into wells other than the wells for measurement of reagent blank value. After the solution was mixed by shaking the plate at 300 rpm for 1 minute, the solution was reacted at 25° C. for 1 hour. Then, the reaction solution was discarded, and the plate was washed for 3 times with 200 μL of rinsing fluid again. Liquid on the plate was removed, and 100 μL of a color coupler was dispensed and left to stand for 10 minutes under a light shielding condition. Finally, 100 μL of a reaction stop solution was dispensed, and within 10 minutes after the dispensing, measurement was performed at main wavelength 450 nm/reference wavelength 630 nm using a micro-plate reader. The concentration of pentosidine was determined using the calibration curve of a pentosidine standard solution, based on measurement values of the sample.

CML = assay: Quantitative determination of CML (CircuLex ELISA kit) after reaction at 120° C. for 60 minutes; type: biochemical; details: Test Example 1; for CML: lysine + arginine 0.2 g each, carbohydrate 3.40 g each, 120° C., 60 minutes
Experimental: Amino acids, carbohydrates and a phosphate buffer solution were charged in a 30 mL glass test tube in each amount shown in Table 1, followed by sealing and stirring. […] The filtrate thus obtained was used as a sample. The amino acids and carbohydrates used are as follows. Using CircuLex CML/Nε-(carboxymethyl) lysine ELISA kit (manufactured by CycLex Co., Ltd.), quantitative determination of CML was performed. Thirty (30) or more minutes before use, reagents and CML solid-phase wells were put to room temperature. […] By performing dilution with standard dilution buffers, standards 1 to 7 were prepared. The sample was diluted as necessary with sample dilution buffers. A CML-HSA standard and 60 μL of the sample were dispensed into a 96-well plate, which is not an accessory to the kit. Next, ultrapure water (Milli-Q water) was added to a first antibody powder, and by diluting with sample dilution buffers, a first antibody solution was prepared, and then 60 μL of the antibody solution was dispensed into the plate and mixed. […] Then, the reaction solution was discarded, and 350 μL of rinsing fluid was dispensed to wash the plate. The washing was performed for 4 times. After liquid on the plate was removed, 100 μL of a second antibody solution was dispensed and reacted at 25° C. for 1 hour while being shaken at 300 rpm. The reaction solution was discarded, and the plate was washed for 4 times with 350 μL of rinsing fluid again. Liquid on the plate was removed, and 100 μL of a color coupler was dispensed. Then, the solution was left to stand for 10 minutes under a light shielding condition while being shaken at 300 rpm. Finally, 100 μL of a reaction stop solution was dispensed, and within 30 minutes after the dispensing, measurement was performed at main wavelength 450 nm/reference wavelength 595 nm using a micro-plate reader. The concentration of CML was determined using the calibration curve of a CML standard solution, based on measurement values of the sample.

human RAGE = molecular target: T1, human RAGE (Homo sapiens, UniProt Q15109); assay: RAGE agonist activity of reaction samples (120° C., 60 minutes), NF-κB luciferase assay in C6 glioma cells; type: cell-based, rat; details: Test Example 2
T1 construct: human RAGE plasmid (including full-length human RAGE cDNA); expressed in transfected cells; host or cells: C6 glioma cells carrying pNF-κB-Luc plasmid and human RAGE plasmid
T1 sequence (Q15109 23-404): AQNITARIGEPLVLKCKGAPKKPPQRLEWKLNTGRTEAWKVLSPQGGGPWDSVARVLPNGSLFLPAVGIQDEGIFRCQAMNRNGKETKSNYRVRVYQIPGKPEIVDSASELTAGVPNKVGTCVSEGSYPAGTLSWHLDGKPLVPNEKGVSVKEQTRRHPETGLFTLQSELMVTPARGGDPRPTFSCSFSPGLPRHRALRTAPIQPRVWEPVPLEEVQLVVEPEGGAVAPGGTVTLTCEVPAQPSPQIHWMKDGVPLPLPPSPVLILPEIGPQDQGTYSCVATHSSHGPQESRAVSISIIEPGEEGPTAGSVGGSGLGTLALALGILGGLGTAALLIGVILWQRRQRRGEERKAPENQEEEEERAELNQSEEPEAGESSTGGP
Experimental: Food-derived proteins, carbohydrates and a phosphate buffer solution were charged in a 30 mL glass test tube in each amount shown in Table 6, followed by sealing and stirring, and then the mixture was reacted in an autoclave at 120° C. for 60 minutes. Next, the reactant was fractionated by centrifugation at 3,000 rpm for 3 hours using an ultrafiltration unit (VIVA SPIN 20, manufactured by Sartorius Corporation). The obtained low molecular weight fraction was used as a sample for determination of 3-DG, while the obtained high molecular weight fraction was used as a sample for the determination of fluorescent AGEs, RAGE agonist activity and RAGE antagonist activity. Food-derived proteins and carbohydrates used are as follows:
Using Luciferase Assay System (manufactured by Promega Corporation), evaluation of RAGE agonist activity was performed. (Day 1) According to the methods disclosed in Diabetes, 2006, vol. 55, pp. 2510-2522, C6 glioma cells into which pNF-κB-Luc plasmid (manufactured by Stratagene Corporation) and human RAGE plasmid (including full-length human RAGE cDNA) have been introduced were seeded at 100 μL/well into a 96-well plate and cultured in a CO2 incubator until the cells were confluent. For the culture, 10% FBS/DMEM medium was used. (Day 2) The medium was removed, and after wells were washed with 300 μL of serum-free DMEM medium, 100 μL of 0.1% FBS/DMEM medium was slowly added. Then, the medium was incubated overnight in a CO2 incubator. (Day 3) The sample was diluted using the medium, and 50 μL of the diluted sample was added to each well. AGE-BSA in which AGE was formed with glyceraldehydes (50 μg/mL) was added to a control well. After incubation in a CO2 incubator for 4 hours, the medium was removed and wells were washed 2 times with 300 μL of PBS (−). Then, 25 μL of 1× lysis buffer was added on ice. After the plate was shaken for 15 seconds, 20 μL of lysate was charged in a new white plate. Further 100 μL of a luciferase assay reagent was added, and a […] was measured by a luminometer. Using 5 μL of lysate, quantitative determination of protein was also performed.

[1] = gliadin + carbohydrate, protein 0.1 μg/mL, relative to control (AGE-BSA) = 1
[2] = lactalbumin + carbohydrate, protein 10 μg/mL, relative to control (AGE-BSA) = 1
[3] = lactic casein + carbohydrate, protein 1 μg/mL, relative to control (AGE-BSA) = 1
[4] = ovalbumin + carbohydrate, protein 10 μg/mL, relative to control (AGE-BSA) = 1
[5] = soybean casein + carbohydrate, protein 0.1 μg/mL, relative to control (AGE-BSA) = 1
[6] = amino acids, compared with the test section 1 containing only sucrose

SMILES | Pentosidine (pentosidine) | CML (CML) | RAGE agonist activity (human RAGE; [1]) | RAGE agonist activity (human RAGE; [2]) | RAGE agonist activity (human RAGE; [3]) | RAGE agonist activity (human RAGE; [4]) | RAGE agonist activity (human RAGE; [5]) | production of pentosidine (pentosidine; [6]) | production of CML (CML; [6]) | RAGE agonist activity (human RAGE; test sections 2, 5 and 11 (ovalbumin, lactalbumin, lactic casein) compared with sections 1, 4 and 10 containing sucrose)
OC[C@H]1O[C@@](CO)(O[C@H]2O[C@H](CO)[C@@H](O)[C@H](O)[C@H]2O)[C@@H](O)[C@@H]1O [Sucrose, reference compound] | 8.4 nmol/1 g of amino acid | 17.4 nmol/1 g of amino acid | 0.53 | 0.81 | 0.53 | 1.66 | 0.34 |  |  | 
OC[C@@H](O)[C@@H](O[C@H]1O[C@H](CO)[C@@H](O)[C@H](O)[C@H]1O)[C@H](O)[C@@H](O)CO [Maltitol] | 3.4 nmol/1 g of amino acid | 15.0 nmol/1 g of amino acid | 0.51 | 0.79 | 0.51 | 1.42 | 0.24 | decreased | decreased | decreased
